According to patent publication US20140030289A1, “COMPOSITIONS COMPRISING BETA-CARYOPHYLLENE AND METHODS OF UTILIZING THE SAME” (priority 2011, published 2014):

Legend:
[1] = tested on: BS-24-1: mouse lymphoma cell; assay: Cell death / anti-proliferative assay (MTT/XTT) in BS-24-1 cells; type: cell-based; details: BS-24-1, 4.8e^−4 μM, 2 h
Experimental: (§1) The following cell lines were used in this study: (1) BS-24-1: mouse lymphoma cell; (2) MoFir: Epstein-Barr virus transformed human B lymphocytes generated in the laboratory by transformation of human B cell from an anonymous donor (see below); (3) FB: normal human skin fibroblasts.
(§2) Cell death was assessed by incubation of cells with tetrazolium salt XTT. The production of formazan can be monitored using an ELISA reader at a wavelength of 450 nm. Cytotoxicity in compound-treated culture was expressed as follows: % survival=100×(absorbance of compound-treated cell/absorbance of ethanol-treated cells).
In order to investigate whether C. gikadensis extracts had anti-proliferative effects against tumor cell lines, an MTT (3-(4,5-Dimethylthiazol-2-yl)-2,5-diphenyltetrazolium bromide) assay was used. The effect of this extract was assessed in mouse (BS-24-1) and human (MoFir) cell lines using ethanol (EtOH)-based stem extracts. The concentration of cells was 1.0×10^6/mL.

[2] = tested on: MoFir: Epstein-Barr virus transformed human B lymphocytes; assay: Cell death / anti-proliferative assay (MTT/XTT) in MoFir cells; type: cell-based; details: 4.8e^−4 μM, 2 h
Experimental: as §1
To establish the MoFir cells, B cells from whole blood were prepared by Ficoll -Hypaque density gradient centrifugation. The cells were infected with the B95-8 strain of Epstein-Barr virus. RPMI medium (Biological Industries Beit Haemek) was used for cell culture. The EBV B lymphocyte cell line was maintained in RPMI supplemented with 10% FBS, 100 U/mL penicillin and […] streptomycin. The culture was maintained at 37° C. in 5% CO2 atmosphere. […]
as §2
In order to investigate whether C. gikadensis extracts had anti-proliferative effects against tumor cell lines, an MTT (3-(4,5-Dimethylthiazol-2-yl)-2,5-diphenyltetrazolium bromide) assay was used. The effect of this extract was assessed in mouse (BS-24-1) and human (MoFir) cell lines using ethanol (EtOH)-based stem extracts. […]

[3] = tested on: caspase-3; assay: Caspase-3 cellular activity assay, BS-24-1 cells; type: cell-based, mouse
[4] = tested on: caspase-3; assay: Caspase-3 cellular activity assay, MoFir cells; type: cell-based, human
Experimental: FIG. 4. is a bar graph showing the apoptogenic effects of β-Caryophyllene on two tumor cell lines. Enzymatic activity of different cell lines incubated with β-Caryophyllene (2.4e^−4 μM) for 2 h. X axis represents the time of the enzymatic reaction in vitro in minutes.
FIG. 5. is a bar graph showing the apoptogenic effects of β-Caryophyllene on two tumor cell lines. […] Measurements were taken following 1020 min of enzymatic reaction in vitro. Pre-incubation with caspase-3 inhibitor (DEVD-CHO) eliminated any development of caspase-3 activity.
Caspase-3 cellular activity assay was carried out according to the manufacturer's instructions. For measuring specific inhibition by Ac-DEVD-CHO, cell extracts were pre-incubated with the inhibitor (0.05 μM) for 10 minutes before the addition of the substrate. […] Cellular extracts were prepared and then caspase-3 activity was measured.

[5] = tested on: BS-24-1 cells; assay: DNA ladder analysis (apoptosis), BS-24-1 cells; type: cell-based, mouse; details: BS-24-1, 2-h treatment
Experimental: FIG. 6. is a gel micrograph showing the DNA ladder effect (induction of apoptosis) of different compositions. BS-24-1 cells (1,000,000/mL) were incubated with C. gileadensis stem and leaf extracts (6 μl/mL) for 17 h. DNA was separated and analyzed on agarose gel. Lanes 1-7 and 11, H2O based stem extract. Lanes 8-10, H2O based leaf extract. Lanes 12-18 and 22, ethanol based stem extract. Lanes 19-21, ethanol based leaf extract. Lanes 23 and 24 Control cells treated with ethanol (0.05%) and water.
FIG. 8. is a gel micrograph showing the DNA ladder effect (induction of apoptosis) of different compositions. BS-24-1 cells were incubated with C. gileadensis essential oil for 24 h. DNA was separated and analyzed on agarose gel. Lane 1, untreated cells with ethanol (0.05%) alone. Lane 2, cells incubation with 0.625 μl/mL essential oil. Lane 3, cells incubation with 1.25 μl/mL essential oil.
FIG. 9. is a gel micrograph showing the DNA ladder effect (induction of apoptosis) of β-Caryophyllene. Fragmentation of DNA in the presence of β-Caryophyllene. BS-24-1 cells were incubated in the presence of β-Caryophyllene in three different concentrations and two incubation time Lane 1, untreated cells with ethanol (0.05%) alone. Lane 2, cells incubated for 24 h with […] Lane 3, cells incubated for 2 h with 9.6 μM β-caryophyllene. […]

[6] = tested on: FB: normal human skin fibroblasts; assay: DNA ladder analysis (apoptosis), normal FB cells; type: cell-based; details: summary statements
Experimental: FIG. 7. is a gel micrograph showing the DNA ladder effect (induction of apoptosis) of different compositions. MoFir and normal FB cells were incubated with C. gileadensis extract (2.5 μl/mL) for 24 h. DNA was separated and analyzed on agarose gel. Lane 1 and 2, ethanol based stem extract Lane 3-5, ethanol based leaf extract. Lane 6 control cells treated with ethanol (0.05%).
DNA ladder analysis was performed as previously described Ofir R. et al., (1999) (Ofir R, Zhang L-, Adams J M. Interference with gene expression induces rapid apoptosisin p53-null T lymphoma cells. Cell Death and Differentiation 1999; 6: 1216-1221).

[7] = tested on: EBV-producing B95-8 cells; assay: Survival of EBV-producing B95-8 cells; type: cell-based; details: increasing concentration
From the text: Epstein-Barr virus strain B95-8 can immortalize human B lymphocytes. B95-8 is a cell line that produces Epstein-Barr virus (EBV).

[8] = biological target: T1, Topoisomerase I (Homo sapiens, UniProt P11387); assay: Topoisomerase I activity; type: biochemical
T1 sequence (P11387 1-765): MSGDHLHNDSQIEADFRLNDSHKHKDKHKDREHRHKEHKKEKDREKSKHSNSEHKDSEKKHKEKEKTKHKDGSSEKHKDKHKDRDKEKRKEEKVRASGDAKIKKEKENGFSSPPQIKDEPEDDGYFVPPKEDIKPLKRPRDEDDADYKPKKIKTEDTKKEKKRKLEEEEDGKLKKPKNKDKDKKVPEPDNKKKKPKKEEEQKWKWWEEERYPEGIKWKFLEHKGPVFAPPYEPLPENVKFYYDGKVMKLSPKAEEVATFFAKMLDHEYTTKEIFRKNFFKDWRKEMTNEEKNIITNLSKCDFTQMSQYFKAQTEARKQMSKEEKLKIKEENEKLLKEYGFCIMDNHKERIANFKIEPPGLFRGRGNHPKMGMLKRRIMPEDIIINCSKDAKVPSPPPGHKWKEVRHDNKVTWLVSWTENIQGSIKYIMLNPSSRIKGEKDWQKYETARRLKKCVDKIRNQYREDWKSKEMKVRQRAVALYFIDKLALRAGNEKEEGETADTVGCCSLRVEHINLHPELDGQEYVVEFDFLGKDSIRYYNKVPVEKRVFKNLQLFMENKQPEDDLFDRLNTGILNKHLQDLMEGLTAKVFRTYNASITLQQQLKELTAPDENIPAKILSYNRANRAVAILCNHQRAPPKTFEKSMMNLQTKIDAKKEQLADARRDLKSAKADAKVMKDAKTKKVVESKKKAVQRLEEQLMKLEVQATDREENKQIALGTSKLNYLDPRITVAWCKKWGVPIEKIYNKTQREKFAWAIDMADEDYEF
From the text: Topoisomerase I introduces a nick in the DNA backbone allowing the rotation of one DNA strand around the second DNA strand. The DNA break is extremely transient and is re-ligated almost immediately. When an inhibitor of Topoisomerase I is present, it binds to the Topoisomerase I-nicked DNA complex or to the Topoisomerase I itself and this prevents the re-ligation of the nicked strand or the initial nick and rotation, respectively. Topoisomerase I and II activities are required for Epstein-Barr Virus replication.

[9] = tested on: Epstein-Barr virus; assay: In vivo EBV animal model (humanized mouse or rabbit); details: 5.0, 10 or 20 mg/kg, 4 consecutive days, i.p. or within food or drinking water
Experimental: Studies evaluating the effect of C. gileadensis extract and β-caryophyllene in an in vivo animal model are performed using the humanized mouse animal model described in Sato et al., 2011 (“A novel animal model of Epstein-Barr virus-associated hemophagocytic lymphohistiocytosis in humanized mice” Blood, 2011 May 26; 117(21):5663-73, incorporated herein by reference in its entirety) or using the rabbit model described in Takashima, 2008 (“A new animal model for primary and persistent Epstein-Barr virus infection: human EBV-infected rabbit characteristics determined using sequential imaging and pathological analysis” J Med. Virol. 2008 March; 80(3):455-66, incorporated herein by reference in its entirety). C. gileadensis extract and β-caryophyllene are supplied in balanced salt solution containing 12% Tween 80 (pH 7.4) and diluted immediately before use in appropriate concentrations. Doses of 5.0, 10 or 20 mg/kg are administered for 4 consecutive days to control and EBV groups (eight animals/group) by i.p. injection of 0.1 ml per mouse or within the food or drinking water. Both C. gileadensis extract and β-caryophyllene are found to prevent EBV-induced death, viremia, leukocytosis, IFN-γ cytokinenemia, normocytic anemia, and thrombocytopenia, and increase survival time

[10] = biological target: cannabinoid receptor type-2 (Homo sapiens, UniProt P34972); details: background statement; cited from earlier work
Sequence of cannabinoid receptor type-2 (P34972 whole entry): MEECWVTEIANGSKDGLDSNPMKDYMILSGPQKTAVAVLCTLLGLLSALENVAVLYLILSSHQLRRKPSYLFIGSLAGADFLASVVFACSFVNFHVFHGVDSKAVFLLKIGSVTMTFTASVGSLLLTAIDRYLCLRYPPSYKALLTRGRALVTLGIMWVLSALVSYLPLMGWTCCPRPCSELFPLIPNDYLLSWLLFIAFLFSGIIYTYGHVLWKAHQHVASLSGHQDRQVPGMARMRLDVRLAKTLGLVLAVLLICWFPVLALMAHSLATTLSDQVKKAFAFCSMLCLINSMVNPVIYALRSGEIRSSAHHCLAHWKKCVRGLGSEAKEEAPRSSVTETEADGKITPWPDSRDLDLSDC

[11] = biological target: cannabinoid receptor type-1 (CB 1) (Homo sapiens, UniProt P21554); details: background statement; cited from earlier work
Sequence of cannabinoid receptor type-1 (CB 1) (P21554 whole entry, species assumed): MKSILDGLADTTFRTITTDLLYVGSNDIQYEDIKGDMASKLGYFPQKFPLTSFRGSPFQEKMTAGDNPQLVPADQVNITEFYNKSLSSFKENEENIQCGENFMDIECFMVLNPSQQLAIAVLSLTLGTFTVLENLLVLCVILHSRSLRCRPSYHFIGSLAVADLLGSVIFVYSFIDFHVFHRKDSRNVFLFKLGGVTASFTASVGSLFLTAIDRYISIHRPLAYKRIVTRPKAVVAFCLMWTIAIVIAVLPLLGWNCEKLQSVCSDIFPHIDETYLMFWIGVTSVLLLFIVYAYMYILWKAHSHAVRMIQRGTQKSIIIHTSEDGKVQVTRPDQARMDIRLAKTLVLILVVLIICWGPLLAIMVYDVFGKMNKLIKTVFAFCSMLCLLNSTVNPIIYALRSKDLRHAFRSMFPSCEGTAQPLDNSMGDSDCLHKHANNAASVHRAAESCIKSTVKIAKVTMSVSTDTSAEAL

Compound: C=C1CC/C=C(\C)CC[C@@H]2[C@@H]1CC2(C)C [Beta-caryophyllene, trans-(1R,9S)-8-Methylene-4,11,11-trimethylbicyclo[7.2.0]undec-4-ene]
- cell killing [1]: 85-90%
- cell killing [2]: 85-90%
- enzymatic activity of caspase-3 ([3]; BS-24-1, 2.4e^−4 μM, 4 h incubation): activation of the enzymatic activity of caspase-3
- induction of caspase-3 enzymatic activity compared to reference compounds STS and citral ([3]; data not shown, cell line not stated): stronger than both
- enzymatic activity of caspase-3 ([4]; 2.4e^−4 μM): activation of the enzymatic activity of caspase-3
- DNA ladder (DNA fragmentation) [5]: repeated
- apoptosis induction in normal cells (FB) [6]: not in normal cells
- survival of EBV-producing B95-8 cells [7]: decreases the survival
- activity of Topoisomerase I [8]: inhibits
- EBV-induced death, viremia, leukocytosis, IFN-γ cytokinenemia, normocytic anemia, and thrombocytopenia [9]: prevent
- survival time [9]: increase
- binding to cannabinoid receptor type-2 [10]: selectively bind
- binding to cannabinoid receptor type-1 (CB 1) [11]: does not bind

Compound: Ac-DEVD-CHO [reference compound]
- beta-caryophyllene induced increase of caspase-3 activity after inhibitor pretreatment ([3]; BS-24-1, pretreatment with inhibitor (0.05 μM, 10 minutes)): blocked
- beta-caryophyllene induced increase of caspase-3 activity after inhibitor pretreatment ([4]; pretreatment with inhibitor (0.05 μM, 10 minutes)): blocked
